Tests used:
[1] = test system: c-Myc (DNA, G4) TGAGGGTGGGTAGGGTGGGTAA; assay: fluorescence titration, simple binding model; settings: K+ 100 mM, 10 mM lithium cacodylate, pH 7.3, stoichiometry fixed, equivalent stereoisomers, per site
[2] = test system: c-Myc (DNA, G4) TGAGGGTGGGTAGGGTGGGTAA; assay: thiazole orange displacement (TO-FID); settings: K+ 100 mM; 10 mM Tris-HCl, pH 7.3; thiazole orange 2 μM displaced; DNA 1 μM; helicene 0-20 μM
[3] = test system: c-Myc (DNA, G4) TGAGGGTGGGTAGGGTGGGTAA; assay: fluorescence titration, competitive binding model; settings: K+ 100 mM, 10 mM lithium cacodylate, pH 7.3, 32% and 96% ee samples, helicene 6 μM, per site
[4] = test system: HTG4 (DNA, G4) AGGGTTAGGGTTAGGGTTAGGG; assay: fluorescence titration, competitive binding model; settings: K+ 100 mM, 10 mM lithium cacodylate, pH 7.3, 32% and 96% ee samples, helicene 6 μM, per site
[5] = test system: BCL2 (BCL2Mid) (DNA, G4) GGGCGCGGGAGGAATTGGGCGGG; assay: fluorescence titration, competitive binding model; settings: K+ 100 mM, 10 mM lithium cacodylate, pH 7.3, 32% and 96% ee samples, helicene 6 μM, per site

Row | Kd ([1]; helicene 4 μM constant) [µM] | DC50 [2] [µM] | Kd ([3]; KM from simultaneous fit of 0%) [µM] | Kd ([3]; KP from simultaneous fit of 0%) [µM] | Kd [1] [µM] | Kd ([4]; KM from simultaneous fit of 0%) [µM] | Kd ([4]; KP from simultaneous fit of 0%) [µM] | Kd ([5]; KM from simultaneous fit of 0%) [µM] | Kd ([5]; KP from simultaneous fit of 0%) [µM] | Structure (SMILES)
1 | 0.7 | 3.8 | – | – | – | – | – | – | – | CCCN1c2ccc3ccccc3c2-c2c3c1cccc3[n+](CCC)c1ccc3ccccc3c21
2 | – | 4.4 | 3.8 | 4.7 | 4.7 | 6.2 | 7.5 | 5.1 | 7.5 | OCCN1c2ccc3ccccc3c2-c2c3c1cccc3[n+](CCO)c1ccc3ccccc3c21
3 | – | 6.0 | – | – | 3.8 | – | – | – | – | c1ccc2c3c(ccc2c1)N(CCN1CCOCC1)c1cccc2c1c-3c1c3ccccc3ccc1[n+]2CCN1CCOCC1
